Measured values reported in US8435978B2, “Substituted sulfonamide compounds” (Gruenenthal GmbH, priority 2006, dated 2013).
Where a name gives a salt, the structure may show the parent alone.

Tests used:
human B1R receptor = target: T1, human B1R receptor (Homo sapiens, UniProt P46663); assay: Functional study on the bradykinin receptor 1 (B1R), FLIPR Ca2+ assay, hB1R cells; type: cell-based; details: agonist Lys-Des-Arg9-bradykinin 0.5 nM, % inhibition compared with the maximum achievable inhibition; for inhibition at 10 µM: CHO-K1, test substance 10 μM, read-out: B1R Antagonism, human [10 μM] % Inhibition; for B1R Antagonism, human [10 μM] % Inhibition: test substance 10 μM, hB1R CHO K1 cells
T1 construct: host or cells: CHO K1 cells (Chinese hamster ovary), stably transfected
T1 sequence (P46663 1-353): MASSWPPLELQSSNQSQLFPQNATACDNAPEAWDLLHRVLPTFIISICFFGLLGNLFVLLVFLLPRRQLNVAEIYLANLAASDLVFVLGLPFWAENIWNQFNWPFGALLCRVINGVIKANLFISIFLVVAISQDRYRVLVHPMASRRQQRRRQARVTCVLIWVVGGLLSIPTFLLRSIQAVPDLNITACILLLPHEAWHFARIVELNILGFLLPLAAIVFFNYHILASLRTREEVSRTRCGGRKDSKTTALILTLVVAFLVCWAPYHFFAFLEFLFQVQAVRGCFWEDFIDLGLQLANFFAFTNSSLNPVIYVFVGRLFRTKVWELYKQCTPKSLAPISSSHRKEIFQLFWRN
Method in brief: (§1)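 Cells were dye-loaded 60 min at 37 °C, equilibrated 20 min at room temperature, then given 10 μM compound. Ten minutes later the species-matched agonist was added (0.5 nM Lys-Des-Arg9-bradykinin, human; 100 nM Des-Arg9-bradykinin, rat) and Ca2+ influx suppression expressed as % of maximum inhibition.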

B1R receptor of the rat = target: T2, B1R receptor of the rat (Rattus norvegicus, UniProt P97583); assay: Functional study on the bradykinin receptor 1 (B1R), FLIPR Ca2+ assay, rB1R cells; type: cell-based; details: agonist Des-Arg9-bradykinin 100 nM, % inhibition compared with the maximum achievable inhibition; for inhibition at 10 µM: CHO-K1, test substance 10 μM, read-out: B1R Antagonism, rat [10 μM] % Inhibition; for B1R Antagonism, rat [10 μM] % Inhibition: test substance 10 μM, rB1R CHO K1 cells
T2 construct: host or cells: CHO K1 cells (Chinese hamster ovary), stably transfected
T2 sequence (P97583 1-337): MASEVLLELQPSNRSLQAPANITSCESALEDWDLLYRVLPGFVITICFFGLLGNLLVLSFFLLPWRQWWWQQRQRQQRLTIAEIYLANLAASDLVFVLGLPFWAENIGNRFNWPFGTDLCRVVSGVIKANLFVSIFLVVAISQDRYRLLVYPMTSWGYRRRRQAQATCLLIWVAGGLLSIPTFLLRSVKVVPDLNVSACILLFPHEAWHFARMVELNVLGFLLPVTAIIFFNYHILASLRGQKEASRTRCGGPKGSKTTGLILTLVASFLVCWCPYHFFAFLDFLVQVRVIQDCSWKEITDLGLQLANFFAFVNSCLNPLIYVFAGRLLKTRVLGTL
Method in brief: as §1

| Compound | inhibition at 10 µM (human B1R receptor) [%] | inhibition at 10 µM (B1R receptor of the rat) [%] | B1R Antagonism, human [10 μM] % Inhibition (human B1R receptor) [%] | B1R Antagonism, rat [10 μM] % Inhibition (B1R receptor of the rat) [%] |
| --- | --- | --- | --- | --- |
| CN1CCN(C2CCN(C(=O)COCC3CCCCN3S(=O)(=O)c3c(Cl)cccc3Cl)CC2)CC1 (stereo not drawn) [Example 278, 2-((1-(2,6-dichlorophenylsulfonyl)piperidin-2-yl)methoxy)-1-(4-(4-methylpiperazin-1-yl)piperidin-1-yl)ethanone] | 104 | 96.9 |  |  |
| CN(C)CCCN1CCN(C(=O)COCC2CCCN2S(=O)(=O)c2ccc(Cl)c(Cl)c2)CC1 (stereo not drawn) [Example 88, 2-[1-(3,4-dichloro-phenylsulfonyl)-pyrrolidin-2-ylmethoxy]-1-[4-(3-dimethylamino-propyl)-piperazin-1-yl]-ethanone] | 42.1 | 7.33 |  |  |
| O=C(COCC1CCCCN1S(=O)(=O)c1c(Cl)cccc1Cl)N1CCC(N2CCCCC2)CC1 (stereo not drawn) [Example 336, 1-(1,4′-bipiperidin-1′-yl)-2-((1-(2,6-dichlorophenylsulfonyl)piperidin-2-yl)methoxy)ethanone] | 103 | 105 |  |  |
| COc1cc(C)c(S(=O)(=O)N2CCCCC2COCC(=O)N2CCC(CCN3CCCCC3)CC2)c(C)c1 (stereo not drawn) [Example 533, 2-((1-(4-methoxy-2,6-dimethylphenylsulfonyl)piperidin-2-yl)methoxy)-1-(4-(2-(piperidin-1-yl)ethyl)piperidin-1-yl)ethanone] | 106 | 108 |  |  |
| COc1ccc2cc(S(=O)(=O)N3CCCCC3COCC(=O)N3CCN(C4CCN(C)CC4)CC3)ccc2c1 (stereo not drawn) [Example 210, 2-((1-(6-methoxynaphthalen-2-ylsulfonyl)piperidin-2-yl)methoxy)-1-(4-(1-methylpiperidin-4-yl)piperazin-1-yl)ethanone] | 106 | 96 |  |  |
| COc1cc(C)c(S(=O)(=O)N2CCCC2COCC(=O)N(Cc2ccccc2)c2cccc(C)n2)c(C)c1 (stereo not drawn) [Example 464, N-benzyl-2-((1-(4-methoxy-2,6-dimethylphenylsulfonyl)pyrrolidin-2-yl)methoxy)-N-(6-methylpyridin-2-yl)acetamide] | 56.6 | 102 |  |  |
| O=C(COCC1CCCCN1S(=O)(=O)c1ccc(Cl)c(Cl)c1)N1CCN(c2ccc(F)cc2)CC1 (stereo not drawn) [Example 59, 2-[1-(3,4-dichloro-phenylsulfonyl)-piperidin-2-ylmethoxy]-1-[4-(4-fluoro-phenyl)-piperazin-1-yl]-ethanone] | 61.5 | 0 |  |  |
| COc1cc(C)c(S(=O)(=O)N2CCCCC2COCC(=O)N2CCN(CCc3ccccc3)CC2)c(C)c1 (stereo not drawn) [Example 373, 2-((1-(4-methoxy-2,6-dimethylphenylsulfonyl)piperidin-2-yl)methoxy)-1-(4-phenethylpiperazin-1-yl)ethanone] | 104 | 98.8 |  |  |
| O=C(COCC1CCCCN1S(=O)(=O)c1c(Cl)cccc1Cl)N1CCCC1c1cccnc1 (stereo not drawn) [Example 497, 2-((1-(2,6-dichlorophenylsulfonyl)piperidin-2-yl)methoxy)-1-(2-(pyridin-3-yl)pyrrolidin-1-yl)ethanone] | 66 | 101 |  |  |
| O=C(COCC1CCCCN1S(=O)(=O)c1cccc2ccccc12)N1CCC(N2CCCCC2)CC1 (stereo not drawn) [Example 235] |  |  | 102.3 | 83.46 |
| O=C(COC[C@@H]1Cc2ccccc2CN1S(=O)(=O)c1ccc(Cl)cc1Cl)N1CCC(CCN2CCCC2)CC1 [Example 183, (S)-2-((2-(2,4-dichlorophenylsulfonyl)-1,2,3,4-tetrahydroisoquinolin-3-yl)methoxy)-1-(4-(2-(pyrrolidin-1-yl)ethyl)piperidin-1-yl)ethanone] | 100 | 96.9 |  |  |
| N-(3-(1H-benzo[d]imidazol-2-yl)propyl)-2-((1-(4-methoxy-2,6-dimethylphenylsulfonyl)piperidin-2-yl)methoxy)acetamide [Example 525] |  |  | 15.41 | 102.31 |
| COc1cc(C)c(S(=O)(=O)N2CCCC2COCC(=O)NCc2ccc(CN3CCCC3)cc2)c(C)c1 (stereo not drawn) [Example 299, 2-((1-(4-methoxy-2,6-dimethylphenylsulfonyl)pyrrolidin-2-yl)methoxy)-N-(4-(pyrrolidin-1-ylmethyl)benzyl)acetamide] | 106 | 103 |  |  |
| COc1cc(C)c(S(=O)(=O)N2CCCCC2COCC(=O)Nc2ccncn2)c(C)c1 (stereo not drawn) [Example 372, 2-((1-(4-methoxy-2,6-dimethylphenylsulfonyl)piperidin-2-yl)methoxy)-N-(pyrimidin-4-yl)acetamide] | -2.76 | 83.8 |  |  |
| COc1cc(C)c(S(=O)(=O)N2CCCCC2COCC(=O)NCCN2CCN(Cc3ccccc3)CC2)c(C)c1 (stereo not drawn) [Example 401, N-(2-(4-benzylpiperazin-1-yl)ethyl)-2-((1-(4-methoxy-2,6-dimethylphenylsulfonyl)piperidin-2-yl)methoxy)acetamide] | 90.8 | 95.6 |  |  |
| COc1ccc(S(=O)(=O)N2Cc3ccccc3C[C@H]2COCC(=O)N2CCN(C3CCN(C)CC3)CC2)cc1 [Example 142, (S)-2-((2-(4-methoxyphenylsulfonyl)-1,2,3,4-tetrahydroisoquinolin-3-yl)methoxy)-1-(4-(1-methylpiperidin-4-yl)piperazin-1-yl)ethanone] | 89.9 | 63 |  |  |
| COc1cc(C)c(S(=O)(=O)N2CCCCC2COCC(=O)Nc2cccc(CN3CCCCC3)c2)c(C)c1 (stereo not drawn) [Example 418, 2-((1-(4-methoxy-2,6-dimethylphenylsulfonyl)piperidin-2-yl)methoxy)-N-(3-(piperidin-1-ylmethyl)phenyl)acetamide] | 101 | 104 |  |  |
| COc1cc(C)c(S(=O)(=O)N2CCCC2COCC(=O)NCc2ccc(CN3CCN(C)CC3)cc2)c(C)c1 (stereo not drawn) [Example 40, 2-[1-(4-methoxy-2,6-dimethyl-phenylsulfonyl)-pyrrolidin-2-ylmethoxy]-N-[4-(4-methyl-piperazin-1-ylmethyl)-benzyl]-acetamide] | 72.7 | 88.7 |  |  |
| COc1cc(C)c(S(=O)(=O)N2CCCCC2COCC(=O)N2CCN(Cc3ccc(Cl)cc3)CC2)c(C)c1 (stereo not drawn) [Example 384, 1-(4-(4-chlorobenzyl)piperazin-1-yl)-2-((1-(4-methoxy-2,6-dimethylphenylsulfonyl)piperidin-2-yl)methoxy)ethanone] | 105 | 98.6 |  |  |
| COc1cc(C)c(S(=O)(=O)N2CCC[C@H]2COCC(=O)N2CCC(CCN3CCCC3)CC2)c(C)c1 [Example 190, (S)-2-((1-(4-methoxy-2,6-dimethylphenylsulfonyl)pyrrolidin-2-yl)methoxy)-1-(4-(2-(pyrrolidin-1-yl)ethyl)piperidin-1-yl)ethanone hydrochloride] | 102 | 102 |  |  |
| CN1CCC(N2CCN(C(=O)COCC3CCCCN3S(=O)(=O)c3c(Cl)cc(Br)cc3Cl)CC2)CC1 (stereo not drawn) [Example 160, 2-((1-(4-bromo-2,6-dichlorophenylsulfonyl)piperidin-2-yl)methoxy)-1-(4-(1-methylpiperidin-4-yl)piperazin-1-yl)ethanone dihydrochloride] | 99 | 99 |  |  |
| COc1cc(C)c(S(=O)(=O)N2CCCC2COCC(=O)N2CCN(c3ccc(Cl)c(Cl)c3)CC2)c(C)c1 (stereo not drawn) [Example 348, 1-(4-(3,4-dichlorophenyl)piperazin-1-yl)-2-((1-(4-methoxy-2,6-dimethylphenylsulfonyl)pyrrolidin-2-yl)methoxy)ethanone] | 87.1 | 103 |  |  |
| COc1cccc(N2CCN(C(=O)COCC3CCCN3S(=O)(=O)c3c(Cl)cccc3Cl)CC2)c1 (stereo not drawn) [Example 324, 2-((1-(2,6-dichlorophenylsulfonyl)pyrrolidin-2-yl)methoxy)-1-(4-(3-methoxyphenyl)piperazin-1-yl)ethanone] | 84 | 98.4 |  |  |
| COc1cc(C)c(S(=O)(=O)N2CCCCC2COCC(=O)N(CCN(C)C)Cc2ccccc2)c(C)c1 (stereo not drawn) [Example 377] |  |  | 87.21 | 99.56 |
